In patent US20260344668A1, “PHENYLPYRAZOLE COMPOUND, AND PLANT DISEASE CONTROL METHOD” (priority 2022, published 2026):

Experiments:
Phakopsora pachyrhizi [1] = assay: Test Example 16 Control Test Against Soybean Rust Fungus (spore germination, petri dish); assay type: cell-based; settings: treatment concentration 10 ppm, 23° C., 1 day
Procedure: (§1) The term of “non-treated well” in Test Example 4, Test Example 5, and Test Example 6 represents a well wherein a test was carried out under the same conditions as those described in each Test Example except for dispensing DMSO instead of a diluted solution with DMSO comprising the Present compound. Also, the term of “non-treated” in Test Examples 15 to 17 represents a test which was carried out under the same conditions as those described in each Test Example except for dispensing DMSO instead of a diluted solution with DMSO comprising the Present compound. Also, the term of “non-treated leaf disk” in Test Example 7 represents a leaf disk wherein a test was carried out under the same conditions as those described in the Test Example except for dispensing DMSO instead of a diluted solution with DMSO comprising the Present compound. Also, the term of “non-treated” in Test Example 10 and Test Example 11 means that a diluted solution with water of a formulation comprising the Present compound was not sprayed.
An agar medium (agar concentration: 1.0%) (3 mL) was placed in a plastic petri dish having a diameter of 3.5 cm, and solidified. Each Present compound was diluted with DMSO in such a way that the resulting diluted solution containing 10000 ppm of the compound, and said solution (1 μL) and an aqueous suspension (1.0×10^4/mL) (999 μL) of spores of Phakopsora pachyrhizi to which spores of Phakopsora pachyrhizi were suspended were mixed, and then the resulting mixture was dispensed into the plastic petri dish. This plastic petri dish was cultured at 23° C. for 1 day, and then germinated spores of Phakopsora pachyrhizi were counted. As a result, when the treatment concentration was 10 ppm, and any one of the Present compound 9, 10, 28, 29, or 32 was used as the test compound to carry out the test, the number of germinated spores in each plastic petri dish using the above each Present compound as the test compound was 50% or less relative to the number of germinated spores in the non-treated plastic petri dish.

[2] = tested on: soybean rust fungus (Phakopsora pachyrhizi) having an amino acid substitution of F129L in a mitochondrial cytochrome b protein; assay: Test Example 7 Control Test Against Soybean Rust (leaf disk); assay type: in vivo; settings: 200 ppm, 10 μL per soybean leaf disk (cultivar: Kurosengoku), inoculated after 1 day
How it was run: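 Soybean (Kurosengoku) leaf disks of 1 cm on 1.2% agar were sprayed with compound in a DMSO/xylene/Sorpol emulsion diluted in water to a prescribed concentration. One day later they were spray-inoculated with F129L cytochrome b mutant P. pachyrhizi spores (1.0×10^5/mL) and kept at 23 °C, 60% humidity, 6 h light, for about 13 days. Lesion area was compared with DMSO-treated disks.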

Phakopsora pachyrhizi [3] = assay: Test Example 11 Control Test Against Soybean Rust (pot test, spraying before inoculation); assay type: in vivo; settings: 200 ppm foliage spray, soybeans (Kurosengoku), inoculated after 2 to 5 days
How it was run: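 Soybeans (cv. Kurosengoku), grown 10–14 days in pots, foliar-sprayed with formulated compound at 200 ppm, inoculated 2–5 days later with Phakopsora pachyrhizi spores. Kept humid 1–2 days at 23 °C day/20 °C night, then greenhouse 12 days; lesion area scored against unsprayed plants.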

Septoria tritici = assay: Test Example 10 Control Test Against Wheat Leaf Blotch (pot test); assay type: in vivo; settings: 200 ppm foliage spray, wheat (Apogee), inoculated after 4 days
Procedure: as §1
A plastic pot was filled with soil, wheat (cultivar: Apogee) was seeded thereto, and cultured in a greenhouse for 10 days. […]

Phakopsora pachyrhizi [4] = assay: Test Example 17 Control Test Against Soybean Rust Fungus (spore germination, petri dish); assay type: cell-based; settings: method according to Test Example 16
Procedure: as §1
An agar medium (agar concentration: 1.0%) (3 mL) was placed in a plastic petri dish having a diameter of 3.5 cm, and solidified. […] This plastic petri dish was cultured at 23° C. for 1 day, and then germinated spores of Phakopsora pachyrhizi were counted. […]

Cladosporium carpophilum = assay: Test Example 5 Control Test Against Peach Scab Fungus (96 well titer plate growth); assay type: cell-based; settings: 1 μL of 150 ppm DMSO solution + 150 μL PDB medium, 18° C., 5 days, absorbance at 550 nm
Procedure: as §1
Each of the Present compound 79, 80, 81, 89, 92, 93, 96, or 99 was diluted with DMSO to obtain a diluted solution containing 150 ppm of each compound, and 1 μL of the diluted solution was dispensed into a titer plate (96 well), and thereto was then dispensed 150 μL of a potato dextrose broth medium (PDB medium) to which spores of Cladosporium carpophilum were inoculated in advance. This plate was cultured at 18° C. for 5 days, thereby allowing Cladosporium carpophilum to undergo proliferation, and the absorbance at 550 nm of each well of the titer plate was then measured to determine a degree of growth of Cladosporium carpophilum. As a result, the degree of growth in the well treated with each of the above Present compound was 50% or less relative to the degree of growth in the non-treated well.

Cochliobolus miyabeanus = assay: Test Example 6 Control Test Against Rice Brown Spot Fungus (96 well titer plate growth); assay type: cell-based; settings: 1 μL of 150 ppm DMSO solution + 150 μL YB liquid medium, 23° C., 3 days, absorbance at 550 nm
Procedure: as §1
Each of the Present compound 17, 33, 36, 37, 39, 40, 41, 42, 43, 44, 48, 49, 50, 51, 52, 53, 62, 68, 69, 70, 71, 76, 77, 79, 80, 81, 82, 83, 84, or 97 was diluted with DMSO to obtain a diluted solution containing 150 ppm of each compound, and 1 μL of the diluted solution was dispensed into a titer plate (96 well), and thereto was then dispensed 150 μL of a YB liquid medium to which spores of Cochliobolus miyabeanus were inoculated in advance. This plate was cultured at 23° C. for 3 days, thereby allowing Cochliobolus miyabeanus to undergo proliferation, and the absorbance at 550 nm of each well of the titer plate was then measured to determine a degree of growth of Cochliobolus miyabeanus. As a result, the degree of growth in the well treated with each of the above Present compounds was 50% or less relative to the degree of growth in the non-treated well.

Phakopsora pachyrhizi [5] = assay: Test Example 15 Control Test Against Soybean Rust Fungus (spore germination, 96 well titer plate); assay type: cell-based; settings: treatment concentration 1 ppm, 23° C., several hours
How it was run: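 Compound in DMSO was added to an aqueous Phakopsora pachyrhizi spore suspension (1.0×10^4/mL) and incubated several hours at 23° C. Germinated spores were counted relative to DMSO-only wells.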

Botrytis cinerea = assay: Test Example 4 Control Test Against Cucumber Botrytis Rot Fungus (96 well titer plate growth); assay type: cell-based; settings: 1 μL of 150 ppm DMSO solution + 150 μL complete medium, 18° C., 4 days, absorbance at 550 nm
Procedure: The term of “non-treated well” in Test Example 4, Test Example 5, and Test Example 6 represents a well wherein a test was carried out under the same conditions as those described in each Test Example except for dispensing DMSO instead of a diluted solution with DMSO comprising the Present compound. Also, the term of “non-treated” in Test Examples 15 to 17 represents a test which was carried out under the same conditions as those described in each Test Example except for dispensing DMSO instead of a diluted solution with DMSO comprising the Present compound. Also, the term of “non-treated leaf disk” in Test Example 7 represents a leaf disk wherein a test was carried out under the same conditions as those described in the Test Example except for dispensing DMSO instead of a diluted solution with DMSO comprising the Present compound. […]
The Present compound 24 was diluted with DMSO to obtain a diluted solution containing 150 ppm of the compound, and 1 μL of the diluted solution was dispensed into a titer plate (96 well), and thereto was then dispensed 150 μL of a complete medium to which spores of Botrytis cinerea were inoculated in advance. This plate was cultured at 18° C. for 4 days, thereby allowing Botrytis cinerea to undergo proliferation, and the absorbance at 550 nm of each well of the titer plate was then measured to determine a degree of growth of Botrytis cinerea. […]

Row | Compound | number of germinated spores relative to the non-treated plastic petri dish (Phakopsora pachyrhizi [1]) | lesion area relative to the lesion area of non-treated leaf disk [2] | lesion area relative to the lesion area in the non-treated soybeans (Phakopsora pachyrhizi [3]) | further results
1 | Cc1ccc(S(=O)(=O)n2ccc(-c3cccc(F)c3)n2)cc1 [compound 28] | ≤ 50% |  |  | 
2 | O=S(=O)(c1cccnc1)n1ccc(-c2cc(F)c(Br)c(F)c2)n1 [compound 10] | ≤ 50% | ≤ 30% | ≤ 30% | 
3 | O=S(=O)(c1ccccc1)n1ccc(-c2ccc(Cl)cc2)n1 [compound 4] |  |  |  | lesion area relative to the lesion area in the non-treated wheat (Septoria tritici): ≤ 30%
4 | Cc1ccc(S(=O)(=O)n2ccc(-c3ccc4c(c3)OC(F)(F)O4)n2)cc1 [compound 61] |  |  |  | number of germinated spores relative to the non-treated plastic petri dish (Phakopsora pachyrhizi [4]): ≤ 50%
5 | O=S(=O)(c1ccco1)n1ccc(-c2ccc(Cl)cc2)n1 [compound 79] |  | ≤ 30% | ≤ 30% | degree of growth relative to the degree of growth in the non-treated well (Cladosporium carpophilum): ≤ 50%; degree of growth relative to the degree of growth in the non-treated well (Cochliobolus miyabeanus): ≤ 50%; number of germinated spores relative to the non-treated well (Phakopsora pachyrhizi [5]): ≤ 50%
6 | Cn1cnc(S(=O)(=O)n2ccc(-c3cccc(C(=O)NC4CC4)c3)n2)c1 [compound 31] |  |  |  | lesion area relative to the lesion area in the non-treated wheat (Septoria tritici): ≤ 30%
7 | COc1ccccc1S(=O)(=O)n1ccc(-c2cc(F)c(Br)c(F)c2)n1 [compound 24] |  |  |  | degree of growth relative to the degree of growth in the non-treated well (Botrytis cinerea): ≤ 50%
8 | O=S(=O)(c1cccs1)n1ccc(-c2ccc(Cl)cc2)n1 [compound 81] |  | ≤ 30% | ≤ 30% | degree of growth relative to the degree of growth in the non-treated well (Cladosporium carpophilum): ≤ 50%; degree of growth relative to the degree of growth in the non-treated well (Cochliobolus miyabeanus): ≤ 50%; number of germinated spores relative to the non-treated well (Phakopsora pachyrhizi [5]): ≤ 50%
9 | O=S(=O)(c1ccoc1)n1ccc(-c2ccc(Cl)cc2)n1 [compound 80] |  | ≤ 30% | ≤ 30% | degree of growth relative to the degree of growth in the non-treated well (Cladosporium carpophilum): ≤ 50%; degree of growth relative to the degree of growth in the non-treated well (Cochliobolus miyabeanus): ≤ 50%; number of germinated spores relative to the non-treated well (Phakopsora pachyrhizi [5]): ≤ 50%
10 | Cc1ccc(S(=O)(=O)n2ccc(-c3ccc(F)cc3)n2)cc1 [compound 29] | ≤ 50% |  |  | 
11 | Cn1cnc(S(=O)(=O)n2ccc(-c3cc(F)c(Br)c(F)c3)n2)c1 [compound 32] | ≤ 50% | ≤ 30% |  | 
12 | O=S(=O)(c1ccccc1)n1ccc(-c2cc(F)c(Br)c(F)c2)n1 [compound 9] | ≤ 50% | ≤ 30% | ≤ 30% | 
